Assay results published in patent publication US12209252B2, “Transduction buffer” (Koninklijke Nederlandse Akademie van Wetenschappen, priority 2015, dated 2025).

How the values were obtained:
[1] = system: KBM7 cells carrying an out-of-frame tdTomato reporter; assay: Effect of carbohydrate supplements on Cas9/sgRNA transduction (tdTomato reporter); assay type: cell-based; settings: carbohydrate 0.8% w/v, 40 minutes, 327 mM NaCl, 200 mM GABA, read two days after
Description: (§1) KBM7 cells carrying an out-of-frame tdTomato reporter were transduced for 40 minutes with recombinant Cas9 protein and sgRNA targeting the out-of-frame region in the tdTomato reporter. Transductions were carried out in 1× iTOP transduction buffer, supplemented with 327 mM NaCl and 200 mM GABA. Indicated carbohydrates were added at 0.8% w/v final concentration. Two days after transduction, tdTomato fluorescence was determined by flow cytometry analysis.
as §1, with “The effect of various carbohydrates on transduction efficiency was tested in the iTOP buffer. KBM7” for “KBM7”, “carbohydrates (sorbitol, lactulose, sucrose, trehalose and myo-inositol)” for “carbohydrates”, “analysis. Higher levels of tdTomato fluorescence were indicative of greater transduction efficiency.” for “analysis.”

[2] = 700 mOsm/Kg, non-salt compound alone; previously tested (WO2015/028969); cited from earlier work
MEFs = assay: BrdU incorporation 24 hrs after beta-lactamase transduction; assay type: cell-based, mouse; settings: see FIGS. 6A-6D
Description: Third column: Relative β-lactamase protein transduction activity; Fourth column: Relative BrdU incorporation 24 hrs after β-lactamase transduction. MEFs were transduced for 3 hours with 1 μM β-lactamase protein at a NaCl adjusted osmolality of 700 mOsm/Kg in transduction buffer containing 30 mM of Glycerol and 15 mM of Glycine and 25 mM of the indicated transduction compounds. β-lactamase incorporation of the reference compound (NDSB201, #01) was set at 100%. Open circles indicate relative BrdU incorporation by the transduced cells. BrdU incorporation of untransduced cells was set at 100% and BrdU incorporation of mitomycin C-treated cells was set at 0%.

[3] = system: sodium-hydrogen antiporter (Nhe) proteins; assay: Inhibition of protein transduction by Na+/H+ exchange inhibitors; assay type: cell-based
From the text: Without wishing to be bound by theory, the inventors hypothesise that activation of such Nhe transporters leads to activation of the macropinocytosis pathway, which is the first step in the transduction process. Thus, in some embodiments, the salt is any salt able to bind to and/or activate a sodium/hydrogen (Na+/H+) transporter, such as an Nhe transporter, for example an Nhe1 transporter. Nhe1 is a ubiquitous membrane-bound enzyme involved in volume- and pH-regulation of vertebrate cells.

Row | Compound | transduction efficiency (tdTomato fluorescence, in words) [1] | induction of protein transduction [2] | also measured
1 | OC[C@H]1O[C@@H](O[C@@H]2[C@@H](CO)OC(O)(CO)[C@H]2O)[C@H](O)[C@@H](O)[C@H]1O (mixture of isomers) [lactulose] | closely followed | failed to induce protein transduction | –
2 | NCCCC(=O)O [#20] | – | – | cell viability / proliferation / survival (in words) (MEFs): particularly good cell survival rates
3 | CN(C)c1nc(N)c(C(=O)N=C(N)N)nc1Cl [DMA] | – | – | inhibition of protein transduction [3]: strongly inhibited
4 | CCN(c1nc(N)c(C(=O)NC(=N)N)nc1Cl)C(C)C [EIPA] | – | – | inhibition of protein transduction [3]: strongly inhibited
5 | OC[C@@H](O)[C@@H](O)[C@H](O)[C@H](O)CO [mannitol] | – | failed to induce protein transduction | –
6 | O[C@H]1[C@H](O)[C@@H](O)[C@H](O)[C@@H](O)[C@H]1O [myo-inositol] | closely followed | – | –
7 | OC[C@@H](O)[C@@H](O)[C@H](O)[C@@H](O)CO [sorbitol] | greatest improvement | failed to induce protein transduction | –
8 | OC[C@H]1O[C@@](CO)(O[C@H]2O[C@H](CO)[C@@H](O)[C@H](O)[C@H]2O)[C@@H](O)[C@@H]1O [sucrose] | improve transduction efficiency | failed to induce protein transduction | –
9 | OC[C@H]1O[C@H](O[C@H]2O[C@H](CO)[C@@H](O)[C@H](O)[C@H]2O)[C@H](O)[C@@H](O)[C@@H]1O [trehalose] | greatest improvement | – | –
